Assay results as given in patent US11168081B2, “Alkaloid derivative having angiogenesis inhibitory effect, and pharmaceutical composition containing same” (SEOUL NATIONAL UNIVERSITY R&DB FOUNDATION, priority 2017, dated 2021).

Experiments:
MDCK permeability = type: in vitro ADME, canine; conditions: dog, MDCK, pH 7.4; 10 μM, apical to basolateral
Procedure: (§1) The permeability was examined using Madin-Darby canine kidney (MDCK) cell line. The MDCK cell line was acquired from the American Type Culture Collection (Manassas, Va.). The cells were seeded in 12 well plates and allowed to grow for 7 days at 37° C. under a 5% CO2 atmosphere. The MDCKI monolayers were equilibrated for 30 minutes in transport buffer (10 mM glucose, 4 mM sodium bicarbonate, HBSS with 1 mM HEPES, pH 7.4) at 37° C. under a 5% CO2 atmosphere prior to the experiment. The permeability of the test compound was examined at 10 μM (with a final DMSO percentage of 1%) in the apical to basolateral (A-to-B) direction. The concentration was analyzed by LC-MS/MS. The apparent permeability (Papp, A-B) was calculated using the following equation 2.
(§2) wherein, dQ/dt is the rate of compound appearance in the receiver compartment (Q is the quantity of compound), C0 is the concentration in the donor compartment, and A is the surface area of the insert.

[1] = tested on: Madin-Darby canine kidney (MDCK) cell line; assay: MDCK permeability; type: in vitro ADME; conditions: in words
Procedure: as §1, §2

[2] = Aqueous solubility (pH-metric CheqSol); type: physicochemical; conditions: 0.15 M KCl, 25° C.
Procedure: The aqueous solubility was measured by the pH-metric CheqSol technique (Sirius Analytical Instruments Ltd.). Experiments was performed in 0.15 M KCl solution under a nitrogen atmosphere, at 25° C., using standardized 0.5 M HCl and 0.5 M KOH solutions.

[3] = tested on: VEGFR2-mediated PI3K/AKT/eNOS and SRC/FAK signaling pathway; assay: Biomarker analysis (immunoblot) in VEGF-stimulated HUVECs; type: cell-based, human; conditions: FIG. 2
Procedure: The harvested cells were lysed by 2× sample loading buffer (250 mM Tris-HCl, pH 6.8; 4% SDS; 10% glycerol; 0.006% bromophenol blue; 2% β-mercaptoethanol; 50 mM sodium fluoride; and 5 mM sodium orthovanadate). The protein concentration was measured, and equal amounts of protein samples were subjected to 6-15% SDS-PAGE. The separated proteins were transferred to PVDF membranes (Millipore, Bedford, Mass.), which were then incubated with primary antibodies diluted in 2.5% BSA in TBST (1:500-1:1000) overnight at 4° C. The membranes were then washed three times with TBST and incubated with the corresponding secondary antibodies. Protein bands were detected with an enhanced chemiluminescence detection kit (Intron, Daejeon, Korea) and an LAS-4000 Imager (Fuji Film Corp., Tokyo, Japan).
The phosphorylation of VEGFR2 (Tyr1175) affects the activation of PI3K signaling, which leads to an increase in vascular permeability. In the VEGF signaling pathway, SRC kinases are downstream of VEGFR2 and regulate vascular permeability and angiogenesis. The activation of FAK is also an important contributor markedly involved in endothelial cell migration, proliferation and adherends junction integrity.

HUVECs [4] = assay: In vitro tube formation assay; type: cell-based, human
Procedure: Matrigel (70 μl/well) was coated onto a 96-well plate and polymerized for 30 minutes at 37° C. under a 5% CO2 atmosphere. HUVECs (1.5×10^4 cells/well) and various concentrations of the compound were seeded onto each well of the Matrigel-coated 96-well plate. The cells were then incubated for 8 hours at 37° C. under a 5% CO2 atmosphere. The formation of endothelial cell tubular structures was visualized under an inverted microscope and photographed (Olympus Optical Co. Ltd., Tokyo, Japan). The inhibition rate of tube formation was determined using the following equation. tube formation inhibition rate (%)=[1−(average tube numbersample−average tube numberVEGF(−))/(average tube numberVEGF(+)−average tube numberVEGF(−))]×100 [Equation 1]
The IC50 value was calculated using nonlinear regression analysis using TableCurve 2D v5.01 software (Systat Software Inc., Richmond, Calif., USA).
(§3) The same experiment was carried out for sunitinib as a positive control.
The endothelial cell tubular structure formation assay was performed in the same manner as in the Experimental Example 1.

HUVECs [5] = assay: HUVEC cell growth assay (MTT); type: cell-based, human; conditions: Homo sapiens, HUVEC; MTT, 24 hours, in the presence of VEGF (50 ng/mL)
Procedure: Human umbilical vascular endothelial cells (HUVECs) were obtained from the ATCC (Rockville, Md.) and cultured in EGM-2 (Lonza, Walkersville, Md.) supplemented with 10% FBS at 37° C. under a 5% CO2 atmosphere.
Cell growth was assessed by MTT assay. HUVECs (8×10^3 cells/well) were seeded onto a 96-well plate with EGM-2 medium supplemented with 10% FBS for 24 hours. The next day, the culture medium was removed, and the cells were then incubated with serum-free medium for 12 hours. Following serum starvation, the cells were cultured in fresh 2% FBS/EBM-2 medium containing various concentrations of the test compound for 24 hours in the presence of VEGF (50 ng/mL). After the incubation, an MTT solution was added, and the plate was incubated for additional 4 hours. The formazan product was dissolved in DMSO, and the absorbance was detected at 570 nm using a VersaMax ELISA microplate reader (Molecular Devices, Sunnyvale, Calif.).
as §3

[6] = tested on: Transgenic zebrafish (flk:EGFP) embryos; assay: Animal model angiogenesis inhibition assay (diabetic retinopathy); type: in vivo; conditions: zebrafish larvae
Procedure: Transgenic zebrafish (flk:EGFP) embryos were provided by the Korea Zebrafish Oraganogenesis Muatant Bank (ZOMB, Daegu, Korea). The zebrafish embryos (3 dpf) were placed in a 12-well plate with 130 mM glucose embryonic H2O and various concentrations of the test compound. At 6 dpf, zebrafish larvae were fixed by 4% paraformaldehyde and stored overnight at 4° C. Next, the larvae were washed with distilled H2O, incubated with 10× trypsin (2.5%) for 90 minutes at 37° C. under a 5% CO2 atmosphere, and washed with distilled H2O. Then, the isolated lenses were isolated from the zebrafish larvae. Optic disc (OD) branches were visualized and photographed using a fluorescence microscope (Axiovert 200M, Carl Zeiss, Del.). The diameters of the larvae vessels were measured by ImageJ software.

pKa = type: physicochemical
Metabolic stability = type: in vitro ADME, human
Procedure: The test compound (1 μM) was incubated with human liver microsomes (HLM, 0.5 mg protein/ml) for 5 minutes at 37° C. in 100 mM potassium phosphate buffer (pH 7.4). The reaction was initiated by adding NADPH solution and incubated for 30 minutes. To terminate the reaction, acetonitrile (containing chlopropamide as internal standard) was added and centrifuged at 14,000 rpm for 5 minutes at 4° C. Then, the supernatant was analyzed using a LC-MS/MS (Kinetex C18 column, Phenomenex, USA).

Plasma stability = type: in vitro ADME, human
Procedure: For measuring plasma stability, the test compound (10 μM) was incubated with human plasma at 37° C. After 30 minutes, the reaction was quenched by adding acetonitrile (containing chlopropamide as internal standard). The samples were vortexed for 5 minutes and centrifuged at 14,000 rpm for 5 minutes at 4° C. Then, the supernatant was analyzed using a LC-MS/MS (Kinetex C18 column, Phenomenex, USA).

HUVECs [7] = assay: Scratch wound migration assay; type: cell-based, human; conditions: 24 hours, concentration-dependent, FIG. 1
Procedure: The scratch wound migration assay was performed as follows.
HUVECs were allowed to grow at 90% confluence in 12-well plates pre-coated with 0.2% gelatin and were then incubated for 24 hours. After the cells were attached, they were wounded by scratching with a 0.2 mL pipette tip. The plates were then washed with serum-free medium. Fresh medium was replaced with 2% FBS/EBM-2 medium containing various concentrations of the test compound. The cells were incubated for 24 hours, and images were recorded using an inverted phase-contrast light microscope (Olympus Optical Co. Ltd., Tokyo, Japan).

CCc1ccc2nc(C(c3ccc(OC)c(OC)c3)n3cc(CCN4CCCCC4)nn3)sc2c1 (stereo not drawn) [Compound I-7, 2-((3,4-dimethoxyphenyl)(4-(2-(piperidin-1-yl)ethyl)-1H-1,2,3-triazol-1-yl)methyl)-6-ethylbenzo[d]thiazole]
Papp A→B at 10 μM (MDCK permeability): 11 ×10⁻⁶ cm/s
MDCK cell permeability [1]: high
Aqueous Solubility [2]: 24 µM
activation of SRC (p-SRC)/FAK (p-FAK) ([3]; VEGF-stimulated HUVECs): inhibited
levels of VEGFR2 (p-VEGFR2) activated by VEGF ([3]; VEGF-stimulated HUVECs): suppressed
activation of PI3K (p-PI3K), AKT (p-AKT) and eNOS (p-eNOS) ([3]; pretreatment 30 minutes, VEGF (50 ng/mL) 20 minutes): significantly suppressed
enhancement of tube formation capacity by VEGF (HUVECs [4]; HUVECs, concentration-dependent, FIG. 1): inhibited
IC50 (HUVECs [4]; Homo sapiens, HUVEC, HUVECs on Matrigel, 8 hours, VEGF-induced tube formation): 0.631 µM
Selectivity Index (SI) (HUVECs [4]; ratio of the IC50 for HUVEC cell growth to the IC50 for tube formation): 75.3
IC50 (HUVECs [5]): 47.5 µM
increase in hyaloid vessel diameters induced by HG ([6]; 130 mM glucose, 3 to 6 dpf, concentration-dependent, FIG. 3): suppressed
hyaloid vessel diameters in the optic disc area ([6]; high glucose, 2.5 μM): markedly reduced
pKa (pKa): 9.24
Metabolic Stability (Metabolic stability; 1 μM, human liver microsomes 0.5 mg protein/ml, NADPH, 30 minutes): 31%
microsomal stability (Metabolic stability; in words, human liver microsomes): good
plasma stability (Plasma stability; 10 μM, human plasma, 37° C., remaining after 30 minutes): 95%
plasma stability (Plasma stability; in words): high
enhancement of endothelial cell migration by VEGF (HUVECs [7]): inhibited
